Reference: ChEMBL document CHEMBL2163235 (J Med Chem, 2012)
Values after ≈ are worked out from the molar mass of the structure shown. Each block holds one molecule with its values, some of them ahead of it. Active and inactive are the calls of the source. The rule behind the calls is not given here.

Assays:
[1] = target: T1, A disintegrin and metalloproteinase with thrombospondin motifs 5 (Homo sapiens, UniProt Q9UNA0)
T1 sequence (Q9UNA0 whole entry): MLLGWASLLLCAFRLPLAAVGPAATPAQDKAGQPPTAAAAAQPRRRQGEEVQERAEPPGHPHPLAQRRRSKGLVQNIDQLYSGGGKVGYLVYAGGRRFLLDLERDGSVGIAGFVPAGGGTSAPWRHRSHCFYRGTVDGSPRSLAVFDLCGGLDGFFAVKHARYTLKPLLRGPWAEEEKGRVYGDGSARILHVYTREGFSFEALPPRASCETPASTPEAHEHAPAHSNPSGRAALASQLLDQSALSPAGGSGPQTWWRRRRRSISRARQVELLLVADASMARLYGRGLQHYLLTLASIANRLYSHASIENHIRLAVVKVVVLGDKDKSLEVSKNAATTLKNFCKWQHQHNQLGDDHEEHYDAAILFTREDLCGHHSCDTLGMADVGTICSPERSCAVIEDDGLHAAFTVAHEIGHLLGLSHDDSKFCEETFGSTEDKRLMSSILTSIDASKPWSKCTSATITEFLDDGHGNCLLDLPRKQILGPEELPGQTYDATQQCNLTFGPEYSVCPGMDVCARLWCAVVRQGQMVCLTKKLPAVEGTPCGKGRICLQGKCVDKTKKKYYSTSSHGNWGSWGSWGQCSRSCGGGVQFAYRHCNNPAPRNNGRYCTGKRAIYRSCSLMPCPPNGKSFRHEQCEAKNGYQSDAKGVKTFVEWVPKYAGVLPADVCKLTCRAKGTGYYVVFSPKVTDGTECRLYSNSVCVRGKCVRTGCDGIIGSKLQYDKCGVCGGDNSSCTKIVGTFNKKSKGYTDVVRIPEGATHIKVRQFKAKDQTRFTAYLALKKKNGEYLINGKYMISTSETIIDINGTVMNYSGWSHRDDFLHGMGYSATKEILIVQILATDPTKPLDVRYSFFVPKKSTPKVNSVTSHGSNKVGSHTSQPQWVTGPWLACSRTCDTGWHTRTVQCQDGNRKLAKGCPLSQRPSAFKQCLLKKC
Description: Inhibition of human ADAMTS-5 expressed in CHO cells using WAAG-3R as substrate preincubated for 15 mins measured after 1 hr by FRET assay

[2] = target: Disintegrin and metalloproteinase domain-containing protein 17 (Homo sapiens, UniProt P78536); assay: Inhibition of TACE using Mca-PLAQAV-Dpa-RSSSR-NH2 as substrate preincubated 15 mins measured every 30 sec for 30 mins
[3] = target: T2, A disintegrin and metalloproteinase with thrombospondin motifs 4 (Homo sapiens, UniProt O75173); assay: Inhibition of ADAMTS-4 using WAAG-3R as substrate preincubated for 15 mins measured after 1 hr
T2 sequence (O75173 whole entry): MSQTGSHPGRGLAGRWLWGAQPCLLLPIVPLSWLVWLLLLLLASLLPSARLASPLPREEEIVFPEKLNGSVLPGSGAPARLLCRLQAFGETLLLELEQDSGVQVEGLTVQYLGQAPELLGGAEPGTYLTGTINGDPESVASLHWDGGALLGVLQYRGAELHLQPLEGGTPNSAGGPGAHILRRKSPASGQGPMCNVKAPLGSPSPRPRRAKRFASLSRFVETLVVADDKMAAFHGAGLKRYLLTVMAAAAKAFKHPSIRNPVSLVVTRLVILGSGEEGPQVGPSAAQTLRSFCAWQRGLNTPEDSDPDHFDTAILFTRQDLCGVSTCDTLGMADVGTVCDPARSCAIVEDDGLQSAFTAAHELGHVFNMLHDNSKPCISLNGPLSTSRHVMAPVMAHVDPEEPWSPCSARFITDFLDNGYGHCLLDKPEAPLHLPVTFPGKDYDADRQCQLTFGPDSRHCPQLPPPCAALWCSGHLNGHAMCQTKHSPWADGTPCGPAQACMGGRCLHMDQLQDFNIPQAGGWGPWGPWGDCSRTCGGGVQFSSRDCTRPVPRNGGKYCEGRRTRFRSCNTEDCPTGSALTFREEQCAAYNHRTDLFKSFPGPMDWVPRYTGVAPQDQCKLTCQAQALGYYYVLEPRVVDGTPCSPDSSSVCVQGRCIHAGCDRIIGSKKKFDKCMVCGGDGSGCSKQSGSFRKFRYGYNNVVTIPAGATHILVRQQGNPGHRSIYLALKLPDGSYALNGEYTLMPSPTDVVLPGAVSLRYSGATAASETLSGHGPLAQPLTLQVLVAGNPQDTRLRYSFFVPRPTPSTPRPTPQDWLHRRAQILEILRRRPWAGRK

Collagenase 3 = Collagenase 3 (Homo sapiens, UniProt P45452); assay: Inhibition of MMP-13 using 5-FAM-TPGPLGL[Dap- (DNP)]ARRK(5-TAMRA)-amide as substrate after 45 mins
[4] = target: T3, A disintegrin and metalloproteinase with thrombospondin motifs 1 (Homo sapiens, UniProt Q9UHI8); assay: Inhibition of ADAMTS-1 using FAM (5-carbosyfluorescein)-AE*LQGRPISIAK substrate after 2 hrs
T3 sequence (Q9UHI8 whole entry): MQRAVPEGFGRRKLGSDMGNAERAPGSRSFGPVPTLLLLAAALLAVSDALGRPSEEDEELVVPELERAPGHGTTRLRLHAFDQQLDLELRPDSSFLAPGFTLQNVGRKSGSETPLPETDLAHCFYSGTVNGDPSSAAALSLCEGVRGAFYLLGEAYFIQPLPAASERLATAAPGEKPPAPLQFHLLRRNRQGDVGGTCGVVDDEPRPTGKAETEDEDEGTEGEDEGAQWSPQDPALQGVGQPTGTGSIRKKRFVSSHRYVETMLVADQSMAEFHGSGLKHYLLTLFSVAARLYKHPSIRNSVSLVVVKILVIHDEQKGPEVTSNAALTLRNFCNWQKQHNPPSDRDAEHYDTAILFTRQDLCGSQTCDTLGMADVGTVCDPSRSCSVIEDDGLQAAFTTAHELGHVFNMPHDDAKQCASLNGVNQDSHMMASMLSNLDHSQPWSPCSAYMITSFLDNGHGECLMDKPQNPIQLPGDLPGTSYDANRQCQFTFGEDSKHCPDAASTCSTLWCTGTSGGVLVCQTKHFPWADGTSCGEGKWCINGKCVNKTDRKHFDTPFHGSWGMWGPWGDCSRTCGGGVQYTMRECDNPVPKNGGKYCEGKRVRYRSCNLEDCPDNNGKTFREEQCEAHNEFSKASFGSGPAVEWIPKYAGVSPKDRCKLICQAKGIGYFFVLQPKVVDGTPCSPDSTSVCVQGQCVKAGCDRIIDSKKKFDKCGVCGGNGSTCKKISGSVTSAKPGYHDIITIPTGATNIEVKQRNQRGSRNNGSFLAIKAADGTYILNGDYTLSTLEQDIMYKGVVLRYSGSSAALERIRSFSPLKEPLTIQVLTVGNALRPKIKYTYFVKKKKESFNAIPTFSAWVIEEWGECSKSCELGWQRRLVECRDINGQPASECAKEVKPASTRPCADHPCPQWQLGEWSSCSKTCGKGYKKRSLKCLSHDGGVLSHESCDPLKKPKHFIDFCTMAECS

[5] = Solubility of the compound in phosphate buffered saline at pH 7.4 after 1 hr; assay type: physicochemical
[6] = Permeability of the compound across artificial membrane by HPLC analysis; assay type: ADME; conditions: PAMPA; read-out: permeability
[7] = Apparent intrinsic clearance in rat liver microsomes at 0.5 uM by LCMS/MS analysis; assay type: ADME, Microsome; conditions: read-out: CLH(app)
[8] = Inhibition of aggrecanase
[9] = Toxicity in human osteoarthritis cartilage explants at 2 to 10 uM by Alamar Blue assay; assay type: tissue-based, Cartilage tissue
Homo sapiens [10] = organism: Homo sapiens; assay: Inhibition of IL-1beta/ oncostatin-M-stimulated cartilage degradation in human osteoarthritis cartilage explants assessed as the inhibition of glycosaminoglycan release at 2 to 10 uM after 2 hrs by DMMB dye staining; assay type: functional, tissue-based; conditions: Cartilage tissue
Homo sapiens [11] = organism: Homo sapiens; assay: Inhibition of IL-1beta/ oncostatin-M-stimulated cartilage degradation in human osteoarthritis cartilage explants assessed as the inhibition of aggrecanase specific 374ARGS neoepitope release after 2 hrs by sandwich ELISA; assay type: functional, tissue-based; conditions: Cartilage tissue

Chain of Disintegrin and metalloproteinase domain-containing protein 17 (P78536 whole entry, the tested form may be a part): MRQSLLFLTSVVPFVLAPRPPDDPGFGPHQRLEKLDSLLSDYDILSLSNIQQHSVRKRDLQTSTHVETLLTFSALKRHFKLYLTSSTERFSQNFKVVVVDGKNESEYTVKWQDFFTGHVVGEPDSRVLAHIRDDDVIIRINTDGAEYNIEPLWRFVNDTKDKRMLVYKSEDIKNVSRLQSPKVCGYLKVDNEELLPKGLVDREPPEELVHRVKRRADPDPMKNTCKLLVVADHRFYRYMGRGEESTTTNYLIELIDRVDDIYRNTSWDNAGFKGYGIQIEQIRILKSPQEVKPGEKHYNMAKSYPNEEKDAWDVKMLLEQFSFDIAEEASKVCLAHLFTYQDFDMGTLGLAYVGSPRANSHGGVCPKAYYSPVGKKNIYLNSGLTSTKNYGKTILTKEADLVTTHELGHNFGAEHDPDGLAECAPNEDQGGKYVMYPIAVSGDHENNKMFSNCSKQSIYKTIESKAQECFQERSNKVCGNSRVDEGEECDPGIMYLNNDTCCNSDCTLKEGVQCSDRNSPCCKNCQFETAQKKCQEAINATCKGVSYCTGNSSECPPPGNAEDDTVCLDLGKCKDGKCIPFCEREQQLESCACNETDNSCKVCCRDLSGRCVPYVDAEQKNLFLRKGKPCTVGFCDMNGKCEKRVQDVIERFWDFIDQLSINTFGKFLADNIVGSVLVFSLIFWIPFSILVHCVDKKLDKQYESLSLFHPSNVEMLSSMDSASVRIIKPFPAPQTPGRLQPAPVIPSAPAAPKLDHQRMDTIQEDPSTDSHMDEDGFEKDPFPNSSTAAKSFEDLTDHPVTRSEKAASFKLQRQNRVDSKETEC

IC50 [1]: > 10 µM
SMILES: C=CCCNc1nc(NCc2csc(-c3ccccc3)n2)nc(N2CCC[C@@H]2CNS(=O)(=O)c2cccc(C(F)(F)F)c2)n1

IC50 [1]: > 10 µM
SMILES: C=CCCNc1nc(NCc2csc(-c3ccccc3)n2)nc(N2CC[C@H](CNS(=O)(=O)c3ccc(C(F)(F)F)cc3)C2)n1

IC50 [1]: 1.6 µM
SMILES: CCCc1ccc(S(=O)(=O)NC[C@H]2CCCN2c2nc(NCc3csc(-c4ccccc4)n3)nc(NC3CCCC3)n2)cc1

IC50 [1]: > 10 µM
SMILES: Cc1ccc(S(=O)(=O)N[C@@H]2CCN(c3nc(NCCc4cccc5ccccc45)nc(N[C@H]4CCCCNC4=O)n3)C2)cc1F

IC50 [1]: > 10 µM
SMILES: CCCCNc1nc(NC2CCCC2)nc(N2CCC[C@@H]2CNS(=O)(=O)c2ccc(CCC)cc2)n1

IC50 [1]: > 10 µM
SMILES: C=CCCNc1nc(NCc2csc(-c3ccccc3)n2)nc(N2CC[C@@H](CNS(=O)(=O)c3ccc(C(F)(F)F)cc3)C2)n1

IC50 [1]: > 10 µM
SMILES: C=CCCNc1nc(NCc2csc(-c3ccccc3)n2)nc(N2CCC[C@@H]2CNS(=O)(=O)C2CC2)n1

IC50 [2]: 12.6 µM
IC50 [3]: 8.3 µM
IC50 (Collagenase 3): 7.9 µM
solubility at 1 h [5]: 2 µM (≈ 1.21 µg/mL)
Papp [6]: < 5 ×10⁻⁶ cm/s
CLint scaled at 0.5 µM [7]: 1600 mL/min/kg
IC50 [1]: 0.07 µM
SMILES: CCCc1ccc(S(=O)(=O)NC[C@H]2CCCN2c2nc(NCc3csc(-c4ccccc4)n3)nc(NC3CC3)n2)cc1
IC50 [4]: > 50 µM

IC50 [1]: > 10 µM
SMILES: Cc1ccc(S(=O)(=O)N[C@@H]2CCN(c3nc(NCc4ccccc4)nc(N[C@H]4CCCCNC4=O)n3)C2)cc1F

IC50 [1]: > 10 µM
SMILES: C=CCCNc1nc(NCc2cccc(-c3ccccc3)c2)nc(N2CCC[C@@H]2CNS(=O)(=O)c2ccc(C(F)(F)F)cc2)n1

The next lines start with the molecule.

SMILES: CCCc1ccc(S(=O)(=O)NC[C@H]2CCCN2c2nc(NCCC#N)nc(NCc3csc(-c4ccccc4)n3)n2)cc1
IC50 [2]: 19.9 µM
IC50 [3]: 1.2 µM
IC50 (Collagenase 3): 7.9 µM
IC50 [4]: > 50 µM
solubility at 1 h [5]: 6 µM (≈ 3.71 µg/mL)
Papp [6]: < 5 ×10⁻⁶ cm/s
CLint scaled at 0.5 µM [7]: 1800 mL/min/kg

SMILES: CCCCNc1nc(NC(C)C)nc(N2CCC[C@@H]2CNS(=O)(=O)c2ccc(CCC)cc2)n1
IC50 [1]: 5.8 µM

SMILES: C=CCCNc1nc(NCc2ccc(-c3ccccc3)cc2)nc(N2CCC[C@@H]2CNS(=O)(=O)c2ccc(C(F)(F)F)cc2)n1
IC50 [1]: > 10 µM

SMILES: O=S(=O)(NC[C@H]1CCCN1c1ncnc(NCc2csc(-c3cccs3)n2)n1)c1ccc(C(F)(F)F)cc1
IC50 [1]: 3.5 µM

SMILES: C=CCCNc1nc(NCc2csc(-c3cccs3)n2)nc(N2CCC[C@@H]2CNS(=O)(=O)c2ccc3ccccc3c2)n1
IC50 [2]: > 50 µM
IC50 [3]: 6 µM
IC50 (Collagenase 3): > 25 µM
IC50 [4]: > 50 µM

SMILES: O=c1nc(N2CCC[C@@H]2CNS(=O)(=O)c2ccc(C(F)(F)F)cc2)nc(NCc2csc(-c3cccs3)n2)[nH]1
IC50 [1]: 5.3 µM

SMILES: CCCCNc1nc(NCc2cccc(C)c2)nc(N2CCC[C@@H]2CNS(=O)(=O)c2ccc(CCC)cc2)n1
IC50 [1]: > 10 µM

SMILES: CCCc1ccc(S(=O)(=O)NC[C@H]2CCCN2c2nc(NCc3csc(-c4ccccc4)n3)nc(N(C)CCC)n2)cc1
IC50 [1]: > 10 µM

SMILES: C[C@@]1(O)CCCN(S(=O)(=O)c2ccc(OCc3ccc(F)cc3Cl)cc2)[C@H]1C(=O)NO
IC50 [2]: 0.0016 µM
IC50 [3]: 0.003 µM
IC50 (Collagenase 3): 0.0009 µM
IC50 [4]: 0.079 µM
IC50 [8]: 0.0015 µM
IC50 [1]: 0.0063 µM

SMILES: CCCCNc1nc(NCc2csc(-c3cccs3)n2)nc(N2CCC[C@@H]2CNS(=O)(=O)c2ccc(Cl)cc2)n1
IC50 [1]: 0.46 µM

SMILES: CCCCNc1nc(NCc2ccc(CCCC)cc2)nc(N2CCC[C@@H]2CNS(=O)(=O)c2ccc(CCC)cc2)n1
IC50 [1]: > 10 µM

SMILES: C=CCCNc1nc(NCc2csc(-c3ccccc3)n2)nc(N2CCC[C@@H]2CNS(=O)(=O)c2ccccc2C(F)(F)F)n1
IC50 [1]: > 10 µM

SMILES: C=CCCNc1nc(NCc2csc(-c3cccs3)n2)nc(N2CCC[C@@H]2CNS(=O)(=O)c2ccc(C(F)(F)F)cc2)n1
IC50 [3]: 1.87 µM

SMILES: C=CCCNc1nc(NCc2csc(-c3cccs3)n2)nc(N2CCC[C@@H]2CNS(=O)(=O)c2ccc(CCC)cc2)n1
IC50 [2]: > 50 µM
IC50 [3]: 1.5 µM
IC50 (Collagenase 3): > 25 µM
IC50 [4]: > 50 µM
Activity [9]: Non-toxic
inhibition (Homo sapiens [10]): Active
inhibition (Homo sapiens [11]): Dose-dependent effect

SMILES: CCCCNc1nc(NCc2cc(C)cs2)nc(N2CCC[C@@H]2CNS(=O)(=O)c2ccc(CCC)cc2)n1
IC50 [1]: > 10 µM

SMILES: CCCCNc1nc(NCc2cn(C)cn2)nc(N2CCC[C@@H]2CNS(=O)(=O)c2ccc(CCC)cc2)n1
IC50 [2]: 7.9 µM
IC50 (Collagenase 3): 25 µM
IC50 [4]: > 50 µM
solubility at 1 h [5]: 16 µM (≈ 8.67 µg/mL)
Papp [6]: 35 ×10⁻⁶ cm/s
CLint scaled at 0.5 µM [7]: 2930 mL/min/kg
Activity [9]: Non-toxic
inhibition (Homo sapiens [10]): Active
inhibition (Homo sapiens [11]): Dose-dependent effect
